The source of these data is US20080009418A1, “Selective Inhibitors” (Alchemia LTD., priority 2004, published 2008).

The target of one assay is T1, Human melanocortin (MC5) (Homo sapiens, UniProt P33032).
T1 construct: purchased Perkin Elmer Biosignal
The assay is described as follows: Radioligand binding, human melanocortin MC5 membranes, FlashPlate, [125I]-NDP-αMSH. The conditions noted are these: compound at 10 μM; [125I]-NDP-αMSH. The essentials: (§1)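 Cloned human receptor membranes were coated onto FlashPlate wells and incubated with radioligand and compound (added from a 0.5 mM DMSO daughter plate) for 1 hour at room temperature in the dark. Scintillation counting gave percent inhibition, with DMSO defining total and reference ligand defining non-specific binding.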

In another assay the target is T2, Human Melanocortin (MC4) (Homo sapiens, UniProt P32245).
T2 construct: purchased Perkin Elmer Biosignal
T2 sequence (P32245 whole entry): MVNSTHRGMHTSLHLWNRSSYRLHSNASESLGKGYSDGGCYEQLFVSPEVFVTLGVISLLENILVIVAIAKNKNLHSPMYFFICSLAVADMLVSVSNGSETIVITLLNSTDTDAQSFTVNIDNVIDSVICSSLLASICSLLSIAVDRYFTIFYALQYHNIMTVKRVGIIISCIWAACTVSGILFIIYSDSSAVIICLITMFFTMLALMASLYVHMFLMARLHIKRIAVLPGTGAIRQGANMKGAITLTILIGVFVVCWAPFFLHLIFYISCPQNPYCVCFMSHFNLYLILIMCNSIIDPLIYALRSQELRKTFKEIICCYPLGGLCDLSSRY
The assay is described as follows: Radioligand binding, human melanocortin MC4 membranes, FlashPlate, [125I]-NDP-αMSH. The conditions noted are these: compound at 10 μM; [125I]-NDP-αMSH. In short, it runs like this: as §1

For another assay, the target named is T3, Human neurokinin (NK1) (Homo sapiens, UniProt P25103).
T3 construct: purchased Perkin Elmer Biosignal
T3 sequence (P25103 whole entry): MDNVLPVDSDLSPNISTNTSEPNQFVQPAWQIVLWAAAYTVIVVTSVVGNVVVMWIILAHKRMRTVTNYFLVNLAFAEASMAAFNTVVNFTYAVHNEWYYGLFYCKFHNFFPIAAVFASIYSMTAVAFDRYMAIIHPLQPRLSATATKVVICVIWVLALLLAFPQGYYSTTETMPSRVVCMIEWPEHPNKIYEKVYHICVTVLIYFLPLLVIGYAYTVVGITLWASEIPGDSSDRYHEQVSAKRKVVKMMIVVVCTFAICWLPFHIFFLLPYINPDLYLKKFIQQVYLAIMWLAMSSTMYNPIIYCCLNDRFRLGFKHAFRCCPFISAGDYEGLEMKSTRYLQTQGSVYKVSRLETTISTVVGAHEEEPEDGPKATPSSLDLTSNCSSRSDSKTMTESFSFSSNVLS
The assay is described as follows: Radioligand binding, human neurokinin NK1 membranes, filtration, [125I]-Substance P. The conditions noted are these: compound at 10 μM; [125I]-Substance P. In short, it runs like this: (§2)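 Membranes from cloned human receptors were incubated with compound and radioligand for 1 hour at room temperature. Bound ligand was collected on 0.3% PEI-soaked filters, washed with cold 50 mM Tris-HCl pH 7.4, and counted by scintillation. Percent inhibition was computed against DMSO totals and reference-ligand nonspecific wells.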

Assay [1] addresses T4, Human melanin-concentrating hormone (MCH1) (Homo sapiens, UniProt Q99705).
T4 construct: purchased Perkin Elmer Biosignal
Kind of assay: Radioligand binding, human melanin-concentrating hormone MCH1 membranes, FlashPlate, [125I]-S36057. The conditions noted are these: compound at 10 μM; [125I]-S36057. In short, it runs like this:
as §1

In a further assay the target is T5, Mouse urotensin (mUR2) (Mus musculus, UniProt Q8VIH9).
T5 construct: purchased Perkin Elmer Biosignal
T5 sequence (Q8VIH9 1-385): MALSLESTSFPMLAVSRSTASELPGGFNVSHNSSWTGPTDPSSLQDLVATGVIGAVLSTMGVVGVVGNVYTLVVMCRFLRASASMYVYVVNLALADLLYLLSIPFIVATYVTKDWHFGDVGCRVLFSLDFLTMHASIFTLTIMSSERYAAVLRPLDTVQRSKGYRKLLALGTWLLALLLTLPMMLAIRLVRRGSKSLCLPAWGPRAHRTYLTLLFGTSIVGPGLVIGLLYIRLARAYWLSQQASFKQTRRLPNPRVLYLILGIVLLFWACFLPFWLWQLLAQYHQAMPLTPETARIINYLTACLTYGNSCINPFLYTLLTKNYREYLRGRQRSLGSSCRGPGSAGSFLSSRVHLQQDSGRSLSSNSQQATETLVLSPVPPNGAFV
Kind of assay: Radioligand binding, mouse urotensin mUR2 membranes, FlashPlate, [125I]-Urotensin II. The conditions noted are these: compound at 10 μM; [125I]-Urotensin II. In short, it runs like this:
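Cloned mouse urotensin (mUR2) receptor membranes from Perkin Elmer Biosignal were immobilized in FlashPlate microplates using a proprietary coating. Each well got 19.5 μl buffer, then 0.5 μl of DMSO, reference ligand, or compound. Adding 5 μl of [125I]-Urotensin II, diluted to 5× final concentration in binding buffer, started binding. Plates were sealed with TopSeal-A and incubated 1 hour at room temperature in the dark. Wells were counted for 30 seconds each on a TopCount after a 60-second delay, and percentage inhibition was calculated.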

A further assay has as its target T6, Human κ-Opioid (KOP) (Homo sapiens, UniProt P41145).
T6 construct: purchased Perkin Elmer Biosignal
Kind of assay: Radioligand binding, human κ-opioid (KOP) membranes, filtration, [3H]-Diprenorphine. The conditions noted are these: compound at 10 μM, [3H]-Diprenorphine. The essentials: as §2

For assay [2], the target named is T7, Human neuropeptide Y (NPY-Y1) (Homo sapiens, UniProt P25929).
T7 construct: purchased Perkin Elmer Biosignal
T7 sequence (P25929 1-384): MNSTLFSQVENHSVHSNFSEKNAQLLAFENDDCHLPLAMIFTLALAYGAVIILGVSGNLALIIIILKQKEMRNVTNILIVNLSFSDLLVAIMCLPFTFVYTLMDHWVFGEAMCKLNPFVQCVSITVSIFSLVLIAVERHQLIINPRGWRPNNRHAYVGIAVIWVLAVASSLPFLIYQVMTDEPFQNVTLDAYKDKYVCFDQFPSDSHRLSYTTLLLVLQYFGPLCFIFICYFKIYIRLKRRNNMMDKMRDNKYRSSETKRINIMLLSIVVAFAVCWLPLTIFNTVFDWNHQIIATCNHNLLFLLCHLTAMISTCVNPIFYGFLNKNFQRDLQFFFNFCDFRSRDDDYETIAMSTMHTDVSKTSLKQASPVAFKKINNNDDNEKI
Kind of assay: Radioligand binding, human neuropeptide Y NPY-Y1 membranes, FlashPlate, [125I]-PYY. The conditions noted are these: compound at 10 μM, [125I]-PYY. The essentials:
as §1

The target in a further assay is T8, Human μ-opioid (MOP) (Homo sapiens, UniProt P35372).
T8 construct: purchased Perkin Elmer Biosignal
T8 sequence (P35372 whole entry): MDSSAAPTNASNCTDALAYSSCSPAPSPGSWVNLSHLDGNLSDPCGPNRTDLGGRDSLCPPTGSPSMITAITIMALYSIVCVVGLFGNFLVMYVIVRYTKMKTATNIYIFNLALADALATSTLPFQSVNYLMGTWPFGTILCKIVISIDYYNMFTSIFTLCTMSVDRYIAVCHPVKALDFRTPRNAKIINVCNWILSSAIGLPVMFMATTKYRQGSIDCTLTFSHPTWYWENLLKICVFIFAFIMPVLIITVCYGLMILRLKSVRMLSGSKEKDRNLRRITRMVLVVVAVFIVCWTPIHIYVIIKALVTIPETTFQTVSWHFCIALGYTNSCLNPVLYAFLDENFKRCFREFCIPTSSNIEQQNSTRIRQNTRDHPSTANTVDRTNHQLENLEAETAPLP
The assay is described as follows: Radioligand binding, human μ-opioid (MOP) membranes, FlashPlate, [3H]-Naloxone. The conditions noted are these: compound at 10 μM; [3H]-Naloxone. In short, it runs like this:
as §1

A further assay has as its target T9, Human opioid (ORL1) (Homo sapiens, UniProt P41146).
T9 construct: purchased Perkin Elmer Biosignal
Kind of assay: Radioligand binding, human opioid ORL1 membranes, FlashPlate, [125I]-Nociceptin. The conditions noted are these: compound at 10 μM; [125I]-Nociceptin. In short, it runs like this:
as §1

Another assay has as its target T10, Human Melanocortin (MC3) (Homo sapiens, UniProt P41968).
T10 construct: purchased Perkin Elmer Biosignal
Kind of assay: Radioligand binding, human melanocortin MC3 membranes, FlashPlate, [125I]-NDP-αMSH. The conditions noted are these: compound at 10 μM; [125I]-NDP-αMSH. In short, it runs like this:
as §1

In the next assay the target is T11, Human δ-opioid (DOP) (Homo sapiens, UniProt P41143).
T11 construct: purchased Perkin Elmer Biosignal
T11 sequence (P41143 whole entry): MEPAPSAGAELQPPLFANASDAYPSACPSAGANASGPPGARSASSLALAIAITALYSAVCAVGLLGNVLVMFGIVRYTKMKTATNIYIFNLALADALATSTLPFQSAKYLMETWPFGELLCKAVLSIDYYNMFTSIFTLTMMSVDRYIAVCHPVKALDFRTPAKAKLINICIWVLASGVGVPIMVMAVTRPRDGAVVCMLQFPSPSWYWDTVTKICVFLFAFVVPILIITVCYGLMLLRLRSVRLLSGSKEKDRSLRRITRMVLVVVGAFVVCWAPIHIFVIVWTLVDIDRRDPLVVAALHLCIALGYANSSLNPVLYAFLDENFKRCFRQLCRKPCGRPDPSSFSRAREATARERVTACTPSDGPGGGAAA
The assay is described as follows: Radioligand binding, human δ-opioid (DOP) membranes, FlashPlate, [3H]-Bremazocine. The conditions noted are these: compound at 10 μM; [3H]-Bremazocine. In short, it runs like this:
as §1

T6 sequence (P41145 whole entry): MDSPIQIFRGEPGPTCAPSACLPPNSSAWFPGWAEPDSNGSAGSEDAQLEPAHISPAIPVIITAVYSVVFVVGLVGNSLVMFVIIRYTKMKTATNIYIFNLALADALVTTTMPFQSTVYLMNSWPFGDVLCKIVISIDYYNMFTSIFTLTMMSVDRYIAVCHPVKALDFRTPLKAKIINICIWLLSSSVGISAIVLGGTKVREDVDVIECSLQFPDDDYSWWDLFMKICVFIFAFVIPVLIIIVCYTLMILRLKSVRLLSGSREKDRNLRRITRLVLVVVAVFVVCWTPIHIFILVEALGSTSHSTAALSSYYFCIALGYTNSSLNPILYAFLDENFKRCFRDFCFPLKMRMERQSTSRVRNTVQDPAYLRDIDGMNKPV
T1 sequence (P33032 whole entry): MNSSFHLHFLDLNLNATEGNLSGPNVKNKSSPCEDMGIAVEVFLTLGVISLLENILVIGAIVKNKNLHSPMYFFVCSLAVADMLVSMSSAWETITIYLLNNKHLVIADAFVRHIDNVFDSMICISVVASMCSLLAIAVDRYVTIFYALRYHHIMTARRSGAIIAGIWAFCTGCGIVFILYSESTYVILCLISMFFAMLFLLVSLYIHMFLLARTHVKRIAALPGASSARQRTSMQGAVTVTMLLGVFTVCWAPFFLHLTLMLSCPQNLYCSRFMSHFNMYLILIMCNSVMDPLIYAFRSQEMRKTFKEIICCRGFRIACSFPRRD
T9 sequence (P41146 whole entry): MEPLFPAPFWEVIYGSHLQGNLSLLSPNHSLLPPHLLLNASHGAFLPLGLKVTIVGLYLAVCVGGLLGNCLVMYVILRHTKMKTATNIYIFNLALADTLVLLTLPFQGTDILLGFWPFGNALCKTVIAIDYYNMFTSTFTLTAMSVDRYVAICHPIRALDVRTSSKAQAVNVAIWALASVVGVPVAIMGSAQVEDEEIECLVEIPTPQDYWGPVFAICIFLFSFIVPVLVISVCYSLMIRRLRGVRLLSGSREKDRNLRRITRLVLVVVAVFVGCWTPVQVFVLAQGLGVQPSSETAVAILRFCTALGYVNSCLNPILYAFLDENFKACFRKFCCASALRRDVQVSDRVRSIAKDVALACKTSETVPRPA
T10 sequence (P41968 whole entry): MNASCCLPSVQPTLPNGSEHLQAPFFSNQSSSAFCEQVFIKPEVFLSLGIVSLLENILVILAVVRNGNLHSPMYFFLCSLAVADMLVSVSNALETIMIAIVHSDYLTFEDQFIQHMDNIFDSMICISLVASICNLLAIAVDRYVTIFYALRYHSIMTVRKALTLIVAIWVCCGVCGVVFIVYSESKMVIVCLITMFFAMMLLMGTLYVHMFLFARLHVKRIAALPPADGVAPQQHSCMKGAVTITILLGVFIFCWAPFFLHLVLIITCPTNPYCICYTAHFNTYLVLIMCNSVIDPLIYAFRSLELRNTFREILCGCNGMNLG
T4 sequence (Q99705 whole entry): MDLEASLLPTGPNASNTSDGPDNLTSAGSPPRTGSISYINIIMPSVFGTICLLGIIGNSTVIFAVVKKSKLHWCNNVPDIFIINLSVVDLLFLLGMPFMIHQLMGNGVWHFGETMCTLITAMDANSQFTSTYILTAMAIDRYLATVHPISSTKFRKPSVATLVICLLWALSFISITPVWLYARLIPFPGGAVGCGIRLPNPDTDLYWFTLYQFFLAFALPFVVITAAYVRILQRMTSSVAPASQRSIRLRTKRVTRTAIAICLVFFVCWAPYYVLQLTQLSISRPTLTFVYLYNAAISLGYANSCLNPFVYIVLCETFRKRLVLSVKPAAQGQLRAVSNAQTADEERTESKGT

For the molecule `N=C(N)NCC(=O)N[C@H]1C(OCc2ccc(Cl)cc2)O[C@H](COCc2ccc3ccccc3c2)[C@@H](O)[C@@H]1OCc1ccc2ccccc2c1` (stereo partly shown) [compound 513], on Human melanocortin (MC5), the “A5: inhibition of radioligand binding, human melanocortin (MC5)” value is “+ (“+” indicates greater than 50% inhibition at 10 μM)”. In addition, the “A4: inhibition of radioligand binding, human melanocortin (MC4)” value on Human Melanocortin (MC4) was “+ (“+” indicates greater than 50% inhibition at 10 μM)”. At Human neurokinin (NK1), the “A8: inhibition of radioligand binding, human neurokinin (NK1)” value was “+ (“+” indicates greater than 50% inhibition at 10 μM)”. Also, the “A6: inhibition of radioligand binding, human melanin-concentrating hormone (MCH1)” value in [1] is listed as “+ (“+” indicates greater than 50% inhibition at 10 μM)”. For the same molecule, the “A11: inhibition of radioligand binding, mouse urotensin (mUR2)” value on Mouse urotensin (mUR2) is on record as “− (“−” indicates less than 50% inhibition at 10 μM)”. Besides, on Human κ-Opioid (KOP) (10 µM), the “A2: inhibition of radioligand binding, human κ-opioid (KOP)” value is “+ (“+” indicates greater than 50% inhibition at 10 μM)”. For the same molecule, the “A9: inhibition of radioligand binding, human neuropeptide Y (NPY-Y1)” value in [2] (10 µM) is recorded as “+ (“+” indicates greater than 50% inhibition at 10 μM)”. Also, the “A7: inhibition of radioligand binding, human μ-opioid (MOP)” value at Human μ-opioid (MOP) was “+ (“+” indicates greater than 50% inhibition at 10 μM)”. Further, the “A10: inhibition of radioligand binding, human opioid (ORL1)” value at Human opioid (ORL1) is on record as “+ (“+” indicates greater than 50% inhibition at 10 μM)”. For the same molecule, the “A3: inhibition of radioligand binding, human melanocortin (MC3)” value at Human Melanocortin (MC3) is on record as “+ (“+” indicates greater than 50% inhibition at 10 μM)”. Also, the “A1: inhibition of radioligand binding, human δ-opioid (DOP)” value on Human δ-opioid (DOP) was “− (“−” indicates less than 50% inhibition at 10 μM)”.
On to `N=C(N)NCC(=O)N[C@H]1C(OCc2ccc(Cl)cc2)O[C@H](COCc2ccccc2)[C@@H](O)[C@@H]1OCc1ccc2ccccc2c1` (stereo partly shown) [compound 514], for which the “A5: inhibition of radioligand binding, human melanocortin (MC5)” value on Human melanocortin (MC5) is “+ (“+” indicates greater than 50% inhibition at 10 μM)”. Moreover, the “A4: inhibition of radioligand binding, human melanocortin (MC4)” value on Human Melanocortin (MC4) is “+ (“+” indicates greater than 50% inhibition at 10 μM)”. Also, the “A8: inhibition of radioligand binding, human neurokinin (NK1)” value on Human neurokinin (NK1) is reported as “+ (“+” indicates greater than 50% inhibition at 10 μM)”. For the same molecule, the “A6: inhibition of radioligand binding, human melanin-concentrating hormone (MCH1)” value in [1] was “+ (“+” indicates greater than 50% inhibition at 10 μM)”. Also, on Mouse urotensin (mUR2), the “A11: inhibition of radioligand binding, mouse urotensin (mUR2)” value was “− (“−” indicates less than 50% inhibition at 10 μM)”. Moreover, the “A2: inhibition of radioligand binding, human κ-opioid (KOP)” value on Human κ-Opioid (KOP) is given as “− (“−” indicates less than 50% inhibition at 10 μM)”. Further, the “A9: inhibition of radioligand binding, human neuropeptide Y (NPY-Y1)” value in assay [2] is “+ (“+” indicates greater than 50% inhibition at 10 μM)”. Further, the “A7: inhibition of radioligand binding, human μ-opioid (MOP)” value on Human μ-opioid (MOP) is “− (“−” indicates less than 50% inhibition at 10 μM)”. The “A10: inhibition of radioligand binding, human opioid (ORL1)” value on Human opioid (ORL1) is given as “+ (“+” indicates greater than 50% inhibition at 10 μM)”. For the same molecule, at Human Melanocortin (MC3), the “A3: inhibition of radioligand binding, human melanocortin (MC3)” value is listed as “+ (“+” indicates greater than 50% inhibition at 10 μM)”. The “A1: inhibition of radioligand binding, human δ-opioid (DOP)” value at Human δ-opioid (DOP) was “− (“−” indicates less than 50% inhibition at 10 μM)”.
